Measurements taken from ChEMBL document CHEMBL5550199, “Rational In Silico Design of Selective TMPRSS6 Peptidomimetic Inhibitors via Exploitation of the S2 Subpocket” (J Med Chem, 2024).
Calls of active or inactive are those of the source. The calls are words filed in the database; no cut-off is given here.

Tests used:
Homo sapiens = species: Homo sapiens; assay: Selectivity index, ratio of Ki for binding affinity to recombinant human Matriptase using Boc-QAR-AMC as substrate assessed as inhibition constant by fluorescence based analysis to Ki for binding affinity to recombinant human TMPRSS6 using Boc-QAR-AMC as substrate assessed as inhibition constant by fluorescence based analysis
[1] = target: T1, Suppressor of tumorigenicity 14 protein (Homo sapiens, UniProt Q9Y5Y6); assay: Binding affinity to recombinant human Matriptase using Boc-QAR-AMC as substrate assessed as inhibition constant by fluorescence based analysis
T1 sequence (Q9Y5Y6 whole entry): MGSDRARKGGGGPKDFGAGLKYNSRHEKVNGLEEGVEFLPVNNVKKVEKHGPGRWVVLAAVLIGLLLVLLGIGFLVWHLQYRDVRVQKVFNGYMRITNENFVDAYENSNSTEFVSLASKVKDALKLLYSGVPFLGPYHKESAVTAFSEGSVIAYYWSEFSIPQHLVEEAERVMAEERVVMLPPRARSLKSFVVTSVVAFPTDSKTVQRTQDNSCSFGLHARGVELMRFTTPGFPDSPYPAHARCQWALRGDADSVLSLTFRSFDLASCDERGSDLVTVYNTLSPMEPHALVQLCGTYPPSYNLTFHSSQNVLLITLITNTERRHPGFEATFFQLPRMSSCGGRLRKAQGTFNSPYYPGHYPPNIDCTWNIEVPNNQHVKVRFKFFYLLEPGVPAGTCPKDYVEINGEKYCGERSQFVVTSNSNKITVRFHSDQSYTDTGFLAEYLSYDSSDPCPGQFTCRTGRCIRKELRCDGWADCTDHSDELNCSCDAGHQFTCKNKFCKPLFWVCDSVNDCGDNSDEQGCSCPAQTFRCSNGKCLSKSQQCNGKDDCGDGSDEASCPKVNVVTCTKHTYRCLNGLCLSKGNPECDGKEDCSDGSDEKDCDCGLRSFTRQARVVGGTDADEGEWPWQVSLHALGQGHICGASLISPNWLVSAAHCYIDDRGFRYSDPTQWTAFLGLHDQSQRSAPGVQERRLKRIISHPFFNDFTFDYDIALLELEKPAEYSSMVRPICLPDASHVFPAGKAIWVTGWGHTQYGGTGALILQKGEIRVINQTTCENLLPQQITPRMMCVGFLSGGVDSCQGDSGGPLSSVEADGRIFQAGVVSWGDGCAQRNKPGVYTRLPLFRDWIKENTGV

[2] = target: T2, Transmembrane protease serine 6 (Homo sapiens, UniProt Q8IU80); assay: Binding affinity to recombinant human TMPRSS6 using Boc-QAR-AMC as substrate assessed as inhibition constant by fluorescence based analysis
T2 sequence (Q8IU80 whole entry): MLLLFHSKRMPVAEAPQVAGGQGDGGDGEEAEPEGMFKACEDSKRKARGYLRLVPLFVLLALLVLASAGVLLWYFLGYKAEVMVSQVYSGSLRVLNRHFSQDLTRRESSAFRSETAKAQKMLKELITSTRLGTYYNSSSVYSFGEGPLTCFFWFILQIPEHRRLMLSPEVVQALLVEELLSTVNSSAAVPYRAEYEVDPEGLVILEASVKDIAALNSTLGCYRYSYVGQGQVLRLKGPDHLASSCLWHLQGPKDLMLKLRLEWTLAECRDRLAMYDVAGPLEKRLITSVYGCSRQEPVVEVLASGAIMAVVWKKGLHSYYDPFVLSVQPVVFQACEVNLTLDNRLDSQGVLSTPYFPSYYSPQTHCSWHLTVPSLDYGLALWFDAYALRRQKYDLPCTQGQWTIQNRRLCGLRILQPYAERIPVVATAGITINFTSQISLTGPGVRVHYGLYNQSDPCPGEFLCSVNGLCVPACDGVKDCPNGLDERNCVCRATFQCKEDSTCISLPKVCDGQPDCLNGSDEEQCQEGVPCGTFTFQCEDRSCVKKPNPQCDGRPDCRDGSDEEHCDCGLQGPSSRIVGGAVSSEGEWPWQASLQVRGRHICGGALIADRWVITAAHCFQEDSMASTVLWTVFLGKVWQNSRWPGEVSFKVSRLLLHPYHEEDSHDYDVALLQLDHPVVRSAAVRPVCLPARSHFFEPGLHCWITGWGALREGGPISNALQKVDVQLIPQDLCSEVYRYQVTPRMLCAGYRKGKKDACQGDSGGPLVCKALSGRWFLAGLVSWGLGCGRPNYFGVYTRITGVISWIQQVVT

[3] = target: T3, Suppressor of tumorigenicity 14 protein (Homo sapiens) (UniProt Q9Y5Y6); assay: Inhibition of recombinant human Matriptase at 100 nM by Michaelis-Menten analysis relative to control
T3 sequence (whole entry): T1 sequence (Q9Y5Y6 whole entry)

[4] = target: T4, Transmembrane protease serine 6 (Homo sapiens) (UniProt Q8IU80); assay: Inhibition of recombinant human TMPRSS6 at 100 nM by Michaelis-Menten analysis relative to control
T4 sequence (whole entry): T2 sequence (Q8IU80 whole entry)

[5] = Cytotoxicity against HEK cells assessed as reduction in cell viability measured for 24 hrs by celltiter-glo 2.0 assay; assay type: toxicity, cell-based; conditions: human

N=C(N)NCCC[C@H](NC(=O)[C@H](Cc1ccc(OCc2ccccc2)cc1)NC(=O)[C@H](Cc1cscn1)NC(=O)CCc1ccccc1)C(=O)c1nc2ccccc2s1
Ratio Ki (Homo sapiens): 4.8 | Ki [1]: 26.8 nM | Ki [2]: 5.6 nM

N=C(N)NCCC[C@H](NC(=O)[C@@H](NC(=O)[C@H](Cc1cscn1)NC(=O)CCc1ccccc1)c1ccccc1)C(=O)c1nc2ccccc2s1
Ratio Ki (Homo sapiens): 2.6 | Ki [1]: 33.6 nM | Ki [2]: 12.5 nM

N=C(N)NCCC[C@H](NC(=O)[C@H](Cc1ccc(C(=O)c2ccccc2)cc1)NC(=O)[C@H](Cc1cscn1)NC(=O)CCc1ccccc1)C(=O)c1nc2ccccc2s1
inhibition [3]: inactive | inhibition [4]: inactive

CCC[C@H](NC(=O)[C@H](Cc1cscn1)NC(=O)CCc1ccccc1)C(=O)N[C@@H](CCCNC(=N)N)C(=O)c1nc2ccccc2s1
inhibition [3]: 20% | inhibition [4]: 20%

CC(C)(C)C[C@H](NC(=O)[C@H](Cc1cscn1)NC(=O)CCc1ccccc1)C(=O)N[C@@H](CCCNC(=N)N)C(=O)c1nc2ccccc2s1
Ratio Ki (Homo sapiens): 11 | Ki [1]: 50.8 nM | Ki [2]: 4.6 nM

N=C(N)NCCC[C@H](NC(=O)[C@H](Cc1ccc2ccccc2c1)NC(=O)[C@H](Cc1cscn1)NC(=O)CCc1ccccc1)C(=O)c1nc2ccccc2s1
Ratio Ki (Homo sapiens): 6.7 | Ki [1]: 53 nM | Ki [2]: 7.9 nM

N=C(N)NCCC[C@H](NC(=O)[C@H](Cc1cccc2ccccc12)NC(=O)[C@H](Cc1cscn1)NC(=O)CCc1ccccc1)C(=O)c1nc2ccccc2s1
Ratio Ki (Homo sapiens): 12 | Activity [5]: Non-Toxic | Ki [1]: 45.3 nM | Ki [2]: 3.7 nM

N=C(N)NCCC[C@H](NC(=O)[C@H](CC1CCCCC1)NC(=O)[C@H](Cc1cscn1)NC(=O)CCc1ccccc1)C(=O)c1nc2ccccc2s1
Ratio Ki (Homo sapiens): 2.3 | Ki [1]: 9.1 nM | Ki [2]: 3.9 nM

CC(C)C[C@H](NC(=O)[C@H](Cc1cscn1)NC(=O)CCc1ccccc1)C(=O)N[C@@H](CCCNC(=N)N)C(=O)c1nc2ccccc2s1
Ratio Ki (Homo sapiens): 3.3 | Ki [1]: 5 nM | Ki [2]: 1.5 nM

N=C(N)NCCC[C@H](NC(=O)[C@H](Cc1ccccc1)NC(=O)[C@H](Cc1cscn1)NC(=O)CCc1ccccc1)C(=O)c1nc2ccccc2s1
Ratio Ki (Homo sapiens): 2.9 | Ki [1]: 4.1 nM | Ki [2]: 1.4 nM

CCCC[C@H](NC(=O)[C@H](Cc1cscn1)NC(=O)CCc1ccccc1)C(=O)N[C@@H](CCCNC(=N)N)C(=O)c1nc2ccccc2s1
inhibition [3]: 20% | inhibition [4]: 20%

CC[C@H](NC(=O)[C@H](Cc1cscn1)NC(=O)CCc1ccccc1)C(=O)N[C@@H](CCCNC(=N)N)C(=O)c1nc2ccccc2s1
inhibition [3]: 20% | inhibition [4]: 20%

CC[C@H](C)[C@H](NC(=O)[C@H](Cc1cscn1)NC(=O)CCc1ccccc1)C(=O)N[C@@H](CCCNC(=N)N)C(=O)c1nc2ccccc2s1
Ratio Ki (Homo sapiens): 9.4 | Ki [1]: 11.3 nM | Ki [2]: 1.2 nM

N=C(N)NCCC[C@H](NC(=O)[C@H](CC12CC3CC(CC(C3)C1)C2)NC(=O)[C@H](Cc1cscn1)NC(=O)CCc1ccccc1)C(=O)c1nc2ccccc2s1
inhibition [3]: inactive | inhibition [4]: inactive

CC[C@@H](C)[C@H](NC(=O)[C@H](Cc1cscn1)NC(=O)CCc1ccccc1)C(=O)N[C@@H](CCCNC(=N)N)C(=O)c1nc2ccccc2s1
Ratio Ki (Homo sapiens): 6.3 | Ki [1]: 8.8 nM | Ki [2]: 1.4 nM

N=C(N)NCCC[C@H](NC(=O)[C@H](CCc1ccccc1)NC(=O)[C@H](Cc1cscn1)NC(=O)CCc1ccccc1)C(=O)c1nc2ccccc2s1
Ratio Ki (Homo sapiens): 1.5 | Ki [1]: 3.3 nM | Ki [2]: 2.2 nM

N=C(N)NCCC[C@H](NC(=O)[C@H](CCC1CCCCC1)NC(=O)[C@H](Cc1cscn1)NC(=O)CCc1ccccc1)C(=O)c1nc2ccccc2s1
Ratio Ki (Homo sapiens): 1.5 | Ki [1]: 12.3 nM | Ki [2]: 8.3 nM
